Here are results for 28 compounds from patent publication US11945808B2, “Substituted cyclohexyl compounds as NOP inhibitors” (Dart NeuroScience, LLC, priority 2018, dated 2024).

Where only a bound is given, the exact number is not on record here.

In the assay the target is human opioid NOP (Homo sapiens, UniProt P41146). Briefly: Cell-based NOP cAMP assay (LANCE cAMP, TR-FRET). As to conditions: antagonism of nociceptin in cAMP assay, cells expressing human NOP, forskolin-stimulated; values given as ranges; read-out: NOP (pIC50) (converted). The procedure: Formula (I) compounds were tested for antagonism of the nociceptin receptor (NOP) in a cell-based cAMP assay, using the LANCE cAMP Detection Kit, Perkin Elmer (Waltham, MA). This assay (LANCE cAMP) is a homogeneous, time-resolved fluorescence resonance energy transfer (TR-FRET) immunoassay designed to measure cAMP produced upon modulation of adenylyl cyclase activity by G protein-coupled receptors (GPCRs).
Chain of human opioid NOP (P41146 whole entry): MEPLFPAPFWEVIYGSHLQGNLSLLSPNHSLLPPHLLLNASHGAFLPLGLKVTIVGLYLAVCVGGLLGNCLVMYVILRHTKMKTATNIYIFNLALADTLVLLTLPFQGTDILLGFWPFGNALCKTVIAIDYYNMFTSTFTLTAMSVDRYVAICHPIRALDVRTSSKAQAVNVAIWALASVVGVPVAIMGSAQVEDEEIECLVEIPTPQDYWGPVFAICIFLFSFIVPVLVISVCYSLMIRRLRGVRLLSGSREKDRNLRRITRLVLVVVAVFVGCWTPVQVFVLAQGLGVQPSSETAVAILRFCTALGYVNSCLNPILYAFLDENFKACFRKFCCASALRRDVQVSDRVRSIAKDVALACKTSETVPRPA
Cells expressing human opioid NOP (ValiScreen cell line, cat #ES-230-C Perkin Elmer (Waltham, MA) were dispensed in simulation buffer (5 mM Hepes, 0.1% BSA, 0.5 mM IBMX in Hanks Buffered Saline Solution) at 2.5 μL cells per well (400 cells/well) into a 1536 white TC-treated assay plate. Compound was then added and plates were incubated for 15 minutes at room temperature. To each well was added 2.5 μL of a solution containing forskolin (3 μM final) and nociceptin peptide ([…] final) diluted in stimulation buffer, and the plates were incubated for 30 minutes at room temperature. To each well was dispensed 5 μL of LANCE Ultra detection (1:300 dilution of anti-cAMP ULight with a 1:100 dilution of Eu-cAMP tracer diluted in cAMP Detection Buffer) reagent, and the plates were incubated for 1 hr at room temperature. The plate was then read on the ViewLux microplate reader (Perkin Elmer, Waltham, MA) using the LANCE 1536 protocol with 60 second exposure times and 50 μs delay. This protocol has an excitation wavelength of 340 nm (DUG11 filter) and emission wavelengths of 615 nm (Eu-Donor) and 665 nm (Alexa 647 cAMP antibody acceptor).
Data was analyzed, normalized, and visualized using ACAS (John McNeil & Co.). Efficacy was calculated using activity of the vehicle (DMSO) as 0% efficacy and the activity of the corresponding reference positive control (SCH 221510, Tocris Bioscience (Pittsburgh, PA), Catalog number 3240) as 100% efficacy. Activity was calculated as the ratio of donor and acceptor emissions. All curve fits and IC50 determinations were performed using a non-linear regression model. The IC50 value was measured as the concentration at which half-maximal response was calculated.
`Cc1cccnc1C1CCC(CCNC2CCN(C)CC2)CC1` (stereo not shown) [Example 182, 1-Methyl-N-{2-[4-(3-methylpyridin-2-yl)cyclohexyl]ethyl}piperidin-4-amine]: the IC50 is greater than 1000 nM.

Regarding `Cc1c(F)c(F)ccc1[C@H]1CC[C@H](CCNC2(C(N)=O)CCOCC2)CC1` [Example 49, 4-((2-((trans)-4-(3,4-difluoro-2-methylphenyl)cyclohexyl)ethyl)amino)tetrahydro-2H-pyran-4-carboxamide], the IC50 was 100 to 1000 nM.

As to `Cc1cnccc1C1CCC(CCNC2CCN(C)CC2)CC1` (stereo not shown) [Example 187, 1-Methyl-N-{2-[4-(3-methylpyridin-4-yl)cyclohexyl]ethyl}piperidin-4-amine], the IC50 is greater than 1000 nM.

As for `CC(=O)N1CCC(NCCC2CCC(c3ncc(F)cc3Cl)CC2)CC1` (stereo not shown) [Example 172, 1-[4-({2-[4-(3-Chloro-5-fluoropyridin-2-yl)cyclohexyl]ethyl}amino)piperidin-1-yl]ethan-1-one], the IC50 is greater than 1000 nM.

`Cc1cnccc1C1CCC(CCNC2(C)CCCC2)CC1` (stereo not shown) [Example 121, 1-Methyl-N-{2-[4-(3-methylpyridin-4-yl)cyclohexyl]ethyl}cyclopentan-1-amine]: the IC50 is greater than 1000 nM.

For the compound `Fc1cnc([C@H]2CC[C@H](CCNC3CCOCC3)CC2)nc1` [Example 12, N-(2-((trans)-4-(5-fluoropyrimidin-2-yl)cyclohexyl)ethyl)tetrahydro-2H-pyran-4-amine], the IC50 is greater than 1000 nM.

For `CN1CCC(NCCC2CCC(c3ncccc3Cl)CC2)CC1` (stereo not shown) [Example 181, N-{2-[4-(3-Chloropyridin-2-yl)cyclohexyl]ethyl}-1-methylpiperidin-4-amine], the IC50 was greater than 1000 nM.

Consider `CC(=O)N1CCC(NCCC2CCC(c3cnccc3C)CC2)CC1` (stereo not shown) [Example 175, 1-[4-({2-[4-(4-Methylpyridin-3-yl)cyclohexyl]ethyl}amino)piperidin-1-yl]ethan-1-one], for which the IC50 was greater than 1000 nM.

On to `Cc1cccnc1C1CCC(CCNC2(C(N)=O)CCCC2)CC1` (stereo not shown) [Example 117, 1-({2-[4-(3-Methylpyridin-2-yl)cyclohexyl]ethyl}amino)cyclopentane-1-carboxamide], for which the IC50 is greater than 1000 nM.

On to `Fc1ccc([C@H]2CC[C@@H](CCNC3CCOCC3F)CC2)c(Cl)c1` (single isomer, unassigned) [Example 57, N-(2-((cis)-4-(2-chloro-4-fluorophenyl)cyclohexyl)ethyl)-3-fluorotetrahydro-2H-pyran-4-amine], for which the IC50 was less than 1 nM.

For `Cc1cnccc1C1CCC(CCNC2(C(N)=O)CCCC2)CC1` (stereo not shown) [Example 123, 1-({2-[4-(3-Methylpyridin-4-yl)cyclohexyl]ethyl}amino)cyclopentane-1-carboxamide], the IC50 was greater than 1000 nM.

Regarding `COCC1(NCCC2CCC(c3ncccc3Cl)CC2)CCOCC1` (stereo not shown) [Example 146, N-{2-[4-(3-Chloropyridin-2-yl)cyclohexyl]ethyl}-4-(methoxymethyl)oxan-4-amine], the IC50 is greater than 1000 nM.

On to `CC(=O)N1CCC(NCCC2CCC(c3ncccc3Cl)CC2)CC1` (stereo not shown) [Example 173, 1-[4-({2-[4-(3-Chloropyridin-2-yl)cyclohexyl]ethyl}amino)piperidin-1-yl]ethan-1-one], for which the IC50 was greater than 1000 nM.

Turning to `NC(=O)C1(NCCC2CCC(c3ncccc3Cl)CC2)CCCC1` (stereo not shown) [Example 116, 1-({2-[4-(3-Chloropyridin-2-yl)cyclohexyl]ethyl}amino)cyclopentane-1-carboxamide], the IC50 was greater than 1000 nM.

For the compound `CC(=O)N1CCC(NCCC2CCC(c3ncccc3C)CC2)CC1` (stereo not shown) [Example 174, 1-[4-({2-[4-(3-Methylpyridin-2-yl)cyclohexyl]ethyl}amino)piperidin-1-yl]ethan-1-one], the IC50 is greater than 1000 nM.

With `Cc1ccncc1C1CCC(CCNC2(C(N)=O)CCCC2)CC1` (stereo not shown) [Example 118, 1-({2-[4-(4-Methylpyridin-3-yl)cyclohexyl]ethyl}amino)cyclopentane-1-carboxamide], the IC50 is greater than 1000 nM.

In the case of `CC(=O)N1CCC(NCCC2CCC(c3cc(F)ccc3Cl)CC2)CC1` (stereo not shown) [Example 178, 1-[4-({2-[4-(2-Chloro-5-fluorophenyl)cyclohexyl]ethyl}amino)piperidin-1-yl]ethan-1-one], the IC50 was greater than 1000 nM.

Consider `CC(=O)N1CCC(NCCC2CCC(c3cccc(F)c3Cl)CC2)CC1` (stereo not shown) [Example 171, 1-[4-({2-[4-(2-Chloro-3-fluorophenyl)cyclohexyl]ethyl}amino)piperidin-1-yl]ethan-1-one], for which the IC50 was greater than 1000 nM.

Take `O=C1CC(NCC[C@H]2CC[C@H](c3ccc(F)cc3Cl)CC2)CCN1` (mixture of isomers) [Example 163, Racemic-4-({2-[(trans)-4-(2-Chloro-4-fluorophenyl)cyclohexyl]ethyl}amino)piperidin-2-one]: the IC50 is 1 to 10 nM.

For `CNC(=O)C1(NCC[C@H]2CC[C@@H](c3ncc(F)cc3C(F)(F)F)CC2)CCOCC1` [Example 50, 4-((2-((cis)-4-(5-fluoro-3-(trifluoromethyl)pyridin-2-yl)cyclohexyl)ethyl)amino)-N-methyltetrahydro-2H-pyran-4-carboxamide], the IC50 was greater than 1000 nM.

For the compound `CN1CCC(NCCC2CCC(c3cccc(F)c3Cl)CC2)CC1` (stereo not shown) [Example 179, N-{2-[4-(2-Chloro-3-fluorophenyl)cyclohexyl]ethyl}-1-methylpiperidin-4-amine], the IC50 is greater than 1000 nM.

Consider `Cc1cnccc1C1CCC(CCNC2(C)CCOCC2)CC1` (stereo not shown) [Example 139, 4-Methyl-N-{2-[4-(3-methylpyridin-4-yl)cyclohexyl]ethyl}oxan-4-amine], for which the IC50 was greater than 1000 nM.

For `CNC(=O)C1(NCC[C@H]2CC[C@H](c3ncc(F)cc3C(F)(F)F)CC2)CCOCC1` [Example 51, 4-((2-((trans)-4-(5-fluoro-3-(trifluoromethyl)pyridin-2-yl)cyclohexyl)ethyl)amino)-N-methyltetrahydro-2H-pyran-4-carboxamide], the IC50 is greater than 1000 nM.

As for `Cc1nccnc1[C@H]1CC[C@H](CCNC2CCOCC2)CC1` [Example 88, N-(2-((trans)-4-(3-methylpyrazin-2-yl)cyclohexyl)ethyl)tetrahydro-2H-pyran-4-amine], the IC50 is greater than 1000 nM.

On to `Clc1cccc(Cl)c1C1CCC(CCNC2CCOCC2)CC1` (single isomer, unassigned) [Example 8, N-(2-((cis)-4-(2,6-dichlorophenyl)cyclohexyl)ethyl)tetrahydro-2H-pyran-4-amine], for which the IC50 is 1 to 10 nM.

As to `CC1(NCCC2CCC(c3cccc(F)c3Cl)CC2)CCCC1` (stereo not shown) [Example 106, N-{2-[4-(2-Chloro-3-fluorophenyl)cyclohexyl]ethyl}-1-methylcyclopentan-1-amine], the IC50 is greater than 1000 nM.

With `Cc1ccncc1C1CCC(CCNC2(C)CCCC2)CC1` (stereo not shown) [Example 111, 1-Methyl-N-{2-[4-(4-methylpyridin-3-yl)cyclohexyl]ethyl}cyclopentan-1-amine], the IC50 was greater than 1000 nM.

As for `NC(=O)C1(NCCC2CCC(c3cccc(F)c3Cl)CC2)CCCC1` (stereo not shown) [Example 114, 1-({2-[4-(2-Chloro-3-fluorophenyl)cyclohexyl]ethyl}amino)cyclopentane-1-carboxamide], the IC50 is greater than 1000 nM.
